The values that follow come from article PMC3664942 (Physical chemistry chemical physics : PCCP, 2013).

The target of one test is metal-free Aβ1-40. Conditions: read-out: Kd relative to Aβ monomer; absence of metal ions; cited from earlier work.
Another test relates to Aβ1-40. Nature of the test: nESI-IM-MS neuropeptide screen for binding with Aβ1-40. Conditions: for Complex formation with Aβ1-40 detected by nESI-IM-MS: 20 μM Aβ1-40, one equivalent of neuropeptide, pH 6.9, 1 h on ice; for Aβ complexes detected by IM-MS: neuropeptide added in large excess in solution.
The test system of a further test is hippocampal neurons. The following applies: μM concentrations; cited from earlier work.

In the case of (–)-epigallocatechin-3-gallate [EGCG], the Kd (commonly the concentration at which binding is half-saturated) on metal-free Aβ1-40 was approximately 60 µM.
Turning to Somatostatin 14, in the test on Aβ1-40, the “Complex formation with Aβ1-40 detected by nESI-IM-MS” value (“Complex formation” below) is recorded as “not evident” and the “Aβ complexes detected by IM-MS” value is listed as “No Aβ complexes were detected”.
Take galanin: the “Complex formation” value in the test with Aβ1-40 was “detected”.
Take neurotensin: in the test with Aβ1-40, the “Complex formation” value was “not evident” and the “Aβ complexes detected by IM-MS” value was “No Aβ complexes were detected”.
Regarding physalaemin [reference compound], the “Inhibition of Aβ-induced neurotoxicity” value in the test with hippocampal neurons is “inhibitors of Aβ-induced neurotoxicity”.
For the substance substance P, in the test on Aβ1-40, the “Complex formation” value is reported as “not evident” and the “Aβ complexes detected by IM-MS” value is reported as “No Aβ complexes were detected”. In addition, in the test on hippocampal neurons, the “Inhibition of Aβ-induced neurotoxicity” value is “inhibitors of Aβ-induced neurotoxicity”.
